According to PMC9518264, “Design and synthesis of novel quinazolinone-based derivatives as EGFR inhibitors with antitumor activity” (Journal of Enzyme Inhibition and Medicinal Chemistry, 2022):

Experiments:
[1] = test system: NCI/ADR-RES; assay: cells; format: cell-based; conditions: Homo sapiens, read-out: growth inhibition % (GI%)
[2] = test system: UACC-62; assay: cells; format: cell-based; conditions: Homo sapiens, UACC-62, read-out: growth inhibition % (GI%)
[3] = test system: HOP-92; assay: cells; format: cell-based; conditions: Homo sapiens, HOP-92, read-out: growth inhibition % (GI%)
[4] = test system: TK-10; assay: cells; format: cell-based; conditions: Homo sapiens, TK-10, read-out: growth inhibition % (GI%)
[5] = test system: DU-145; assay: cells; format: cell-based; conditions: Homo sapiens, DU-145, read-out: growth inhibition % (GI%)
[6] = test system: RPMI-8226; assay: cells; format: cell-based; conditions: Homo sapiens, RPMI-8226, read-out: growth inhibition % (GI%)
[7] = test system: HOP-62; assay: cells; format: cell-based; conditions: Homo sapiens, HOP-62, read-out: growth inhibition % (GI%)
[8] = test system: OVCAR-4; assay: cells; format: cell-based; conditions: Homo sapiens, OVCAR-4, read-out: growth inhibition % (GI%)
[9] = test system: OVCAR-5; assay: cells; format: cell-based; conditions: Homo sapiens, OVCAR-5, read-out: growth inhibition % (GI%)
[10] = test system: SN12C; assay: cells; format: cell-based; conditions: Homo sapiens, read-out: growth inhibition % (GI%)
[11] = test system: SF-539; assay: cells; format: cell-based; conditions: Homo sapiens, SF-539, read-out: growth inhibition % (GI%)
[12] = test system: NCI-H460; assay: cells; format: cell-based; conditions: Homo sapiens, NCI-H460, read-out: growth inhibition % (GI%)
[13] = test system: COLO-205; assay: cells; format: cell-based; conditions: Homo sapiens, COLO 205, read-out: growth inhibition % (GI%)
[14] = test system: SNB-19; assay: cells; format: cell-based; conditions: Homo sapiens, SNB-19, read-out: growth inhibition % (GI%)
[15] = test system: ACHN; assay: cells; format: cell-based; conditions: Homo sapiens, read-out: growth inhibition % (GI%)
[16] = test system: BT-549; assay: cells; format: cell-based; conditions: Homo sapiens, BT-549, read-out: growth inhibition % (GI%)
[17] = test system: EKVX; assay: cells; format: cell-based; conditions: Homo sapiens, read-out: growth inhibition % (GI%)
[18] = test system: MCF7; assay: cells; format: cell-based; conditions: Homo sapiens, MCF7, read-out: growth inhibition % (GI%)
[19] = test system: UACC-257; assay: cells; format: cell-based; conditions: Homo sapiens, UACC-257, read-out: growth inhibition % (GI%)
[20] = test system: HCC-2998; assay: cells; format: cell-based; conditions: Homo sapiens, HCC 2998, read-out: growth inhibition % (GI%)
[21] = test system: SW-620; assay: cells; format: cell-based; conditions: Homo sapiens, SW-620, read-out: growth inhibition % (GI%)
[22] = test system: HCT-15; assay: cells; format: cell-based; conditions: Homo sapiens, HCT-15, read-out: growth inhibition % (GI%)
[23] = test system: SR; assay: cells; format: cell-based; conditions: Homo sapiens, read-out: growth inhibition % (GI%)
[24] = test system: panel of 60 tumour cell lines; assay: NCI 60 cell line antiproliferative screening (SRB), whole panel or subpanels (means, ranges, words); format: cell-based, human; conditions: 10 μM
[25] = test system: SK-MEL-28; assay: cells; format: cell-based; conditions: Homo sapiens, SK-MEL-28, read-out: growth inhibition % (GI%)
[26] = test system: PC-3; assay: cells; format: cell-based; conditions: Homo sapiens, PC-3, read-out: growth inhibition % (GI%)
[27] = test system: OVCAR-3; assay: NCI 60 cell line antiproliferative screening (SRB), Ovarian cancer; conditions: Homo sapiens, OVCAR-3, read-out: growth inhibition % (GI%)
[28] = test system: A549/ATCC; assay: cells; format: cell-based; conditions: Homo sapiens, A549, read-out: growth inhibition % (GI%)
[29] = test system: MALME-3M; assay: cells; format: cell-based; conditions: Homo sapiens, Malme-3M, read-out: growth inhibition % (GI%)
[30] = test system: HCT-116; assay: cells; format: cell-based; conditions: Homo sapiens, HCT-116, read-out: growth inhibition % (GI%)
[31] = test system: SK-MEL-2; assay: cells; format: cell-based; conditions: Homo sapiens, SK-MEL-2, read-out: growth inhibition % (GI%)
[32] = test system: NCI-H226; assay: cells; format: cell-based; conditions: Homo sapiens, NCI-H226, read-out: growth inhibition % (GI%)
[33] = test system: UO-31; assay: cells; format: cell-based; conditions: Homo sapiens, UO-31, read-out: growth inhibition % (GI%)
[34] = test system: 786-0; assay: cells; format: cell-based; conditions: Homo sapiens, 786-0, read-out: growth inhibition % (GI%)
[35] = test system: HT29; assay: cells; format: cell-based; conditions: Homo sapiens, HT-29, read-out: growth inhibition % (GI%)
[36] = test system: SK-MEL-5; assay: cells; format: cell-based; conditions: Homo sapiens, SK-MEL-5, read-out: growth inhibition % (GI%)
[37] = test system: SNB-75; assay: cells; format: cell-based; conditions: Homo sapiens, SNB-75, read-out: growth inhibition % (GI%)
[38] = test system: MOLT-4; assay: cells; format: cell-based; conditions: Homo sapiens, MOLT-4, read-out: growth inhibition % (GI%)
[39] = test system: HL-60(TB); assay: cells; format: cell-based; conditions: Homo sapiens, HL-60, read-out: growth inhibition % (GI%)
[40] = test system: MDA-MB-468; assay: NCI 60 cell line antiproliferative screening (SRB), Breast cancer; conditions: Homo sapiens, MDA-MB-468, read-out: growth inhibition % (GI%)
[41] = test system: A498; assay: cells; format: cell-based; conditions: Homo sapiens, A498, read-out: growth inhibition % (GI%)
[42] = test system: NCI-H322M; assay: cells; format: cell-based; conditions: Homo sapiens, read-out: growth inhibition % (GI%)
[43] = test system: CCRF-CEM; assay: cells; format: cell-based; conditions: Homo sapiens, read-out: growth inhibition % (GI%)
[44] = test system: T-47D; assay: cells; format: cell-based; conditions: Homo sapiens, T47D, read-out: growth inhibition % (GI%)
[45] = test system: U251; assay: cells; format: cell-based; conditions: Homo sapiens, U-251, read-out: growth inhibition % (GI%)
[46] = test system: NCI-H522; assay: cells; format: cell-based; conditions: Homo sapiens, NCI-H522, read-out: growth inhibition % (GI%)
[47] = test system: SF-295; assay: cells; format: cell-based; conditions: Homo sapiens, SF-295, read-out: growth inhibition % (GI%)

COc1ccc(Oc2ccc(C=NNC(=O)CSc3nc4ccccc4c(=O)n3-c3ccc(Cl)cc3)cc2)cc1 [6f, 2-((3–(4-chlorophenyl)-4-oxo-3,4-dihydroquinazolin-2-yl)thio)-N'-(4–(4-methoxyphenoxy)benzylidene)acetohydrazide] showed an inhibition at 10 µM [1] of 48.9%, an inhibition at 10 µM [2] of 38.1% and an inhibition at 10 µM [3] of 22.7%. The inhibition at 10 µM [4] was < 15%, the inhibition at 10 µM [5] was 50.8% and the inhibition at 10 µM [6] was 14.9%. For the same molecule, the inhibition at 10 µM [7] was 26.7%, the inhibition at 10 µM [8] was 27.4% and the inhibition at 10 µM [9] was 18.8%. It also gave an inhibition at 10 µM [10] of 47.3%, an inhibition at 10 µM [11] of 67.8% and an inhibition at 10 µM [12] of 88.8%. For the same molecule, the inhibition at 10 µM [13] was 27.2%, the inhibition at 10 µM [14] was 38.5% and the inhibition at 10 µM [15] was 92.2%. The inhibition at 10 µM [16] was < 15%, the inhibition at 10 µM [17] was 30.6% and the inhibition at 10 µM [18] was 50.7%. For the same molecule, the inhibition at 10 µM [19] was < 15%, the inhibition at 10 µM [20] was 16.6% and the inhibition at 10 µM [21] was 55.6%. For the same molecule, the inhibition at 10 µM [22] was 44%, the inhibition at 10 µM [23] was 27.2% and the “GI% range over a subset of cell lines” value ([24]; subset of cell lines whose number is stated in the sentence) was 67.83 to 30.59%. The inhibition at 10 µM ([24]; Homo sapiens, 60 cell, mean over the cell line panel, read-out: Mean growth inhibition % (mean GI%)) was 42.5%, the inhibition at 10 µM [25] was < 15% and the inhibition at 10 µM [26] was 36.3%. The inhibition at 10 µM [27] was > 100%, the inhibition at 10 µM [28] was 53% and the inhibition at 10 µM [29] was 36.1%. The inhibition at 10 µM [30] was 86.7%, the inhibition at 10 µM [31] was < 15% and the inhibition at 10 µM [32] was 20.3%. The inhibition at 10 µM [33] was 52.3%, the inhibition at 10 µM [34] was 74.8% and the inhibition at 10 µM [35] was 83.9%. It also gave an inhibition at 10 µM [36] of 22%, an inhibition at 10 µM [37] of 58.4% and an inhibition at 10 µM [38] of 38.3%. For the same molecule, the inhibition at 10 µM [39] was < 15%, the inhibition at 10 µM [40] was 33.2% and the inhibition at 10 µM [41] was 27.1%. It also gave an inhibition at 10 µM [42] of 15.3%, an inhibition at 10 µM [43] of 36.5% and an inhibition at 10 µM [44] of 62.1%. The inhibition at 10 µM [45] was 63.5%, the inhibition at 10 µM [46] was 48.7% and the inhibition at 10 µM [47] was 32.3%.
